Drawing on patent US20230041738A1, “1H-PYRAZOLO[4,3-d]PYRIMIDINE COMPOUNDS AS TOLL-LIKE RECEPTOR 7 (TLR7) AGONISTS” (BRISTOL-MYERS SQUIBB COMPANY, priority 2020, published 2023), this text covers EC50 for 9 compounds.

For one test, the target named is T1, human TLR7 (Homo sapiens, UniProt Q9NYK1).
T1 construct: host or cells: HEK-Blue TLR7 cells (engineered human embryonic kidney cells)
T1 sequence (Q9NYK1 27-1049): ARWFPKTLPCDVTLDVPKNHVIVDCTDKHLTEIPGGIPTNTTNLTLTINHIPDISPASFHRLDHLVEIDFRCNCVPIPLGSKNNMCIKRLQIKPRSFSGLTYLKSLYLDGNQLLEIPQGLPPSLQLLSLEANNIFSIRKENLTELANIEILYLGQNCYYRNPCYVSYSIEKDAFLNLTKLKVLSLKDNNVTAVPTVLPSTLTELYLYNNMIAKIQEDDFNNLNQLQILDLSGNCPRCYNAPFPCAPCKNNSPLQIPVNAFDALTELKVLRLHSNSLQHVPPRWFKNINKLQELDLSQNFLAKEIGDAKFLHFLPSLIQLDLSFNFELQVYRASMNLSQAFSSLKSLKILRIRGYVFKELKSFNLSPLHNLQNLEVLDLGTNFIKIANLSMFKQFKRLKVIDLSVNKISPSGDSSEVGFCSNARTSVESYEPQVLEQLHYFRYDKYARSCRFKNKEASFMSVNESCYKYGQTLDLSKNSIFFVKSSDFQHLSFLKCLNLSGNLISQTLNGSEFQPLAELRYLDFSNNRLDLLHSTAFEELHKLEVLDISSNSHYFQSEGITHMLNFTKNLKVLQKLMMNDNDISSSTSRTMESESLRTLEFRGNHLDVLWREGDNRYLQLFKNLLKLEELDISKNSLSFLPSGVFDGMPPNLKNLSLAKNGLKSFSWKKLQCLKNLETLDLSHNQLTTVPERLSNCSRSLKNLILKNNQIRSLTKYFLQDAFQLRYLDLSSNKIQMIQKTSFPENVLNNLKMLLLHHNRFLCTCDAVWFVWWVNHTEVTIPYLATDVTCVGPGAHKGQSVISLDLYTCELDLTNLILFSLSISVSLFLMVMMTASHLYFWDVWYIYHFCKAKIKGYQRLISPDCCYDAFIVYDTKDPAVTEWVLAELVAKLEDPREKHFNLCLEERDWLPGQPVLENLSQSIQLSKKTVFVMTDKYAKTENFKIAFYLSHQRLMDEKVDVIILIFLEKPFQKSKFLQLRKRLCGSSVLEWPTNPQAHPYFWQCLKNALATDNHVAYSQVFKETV
In words: Human TLR7 agonist activity assay (hTLR7 reporter, HEK-Blue TLR7 cells, SEAP). The settings on record: HEK-Blue TLR7 cells with SEAP reporter, 18 h treatment; average where assay performed multiple times. Format: cell-based. As to the method: This procedure describes a method for assaying human TLR7 (hTLR7) agonist activity of the compounds disclosed in this specification.
HEK-Blue™ TLR7 cells were added to each well of a 384-well tissue-culture plate (15,000 cells per well) and incubated 16-18 h at 37° C., 5% CO2. Compounds (100 nl) were dispensed into wells containing the HEK-Blue™ TLR cells and the treated cells were incubated at 37° C., 5% CO2. After 18 h treatment ten microliters of freshly-prepared Quanti-Blue™ reagent (Invivogen) was added to each well, incubated for 30 min (37° C., 5% CO2) and SEAP levels measured using an Envision plate reader (OD=620 nm). The half maximal effective concentration values (EC50; compound concentration which induced a response halfway between the assay baseline and maximum) were calculated.

A further test relates to CD69. In words: Induction of CD69 in human whole blood (hWB). It counts as cell-based. The settings on record: 17 hrs at 37 C, CD69 surface staining, 100% set to 1 uM resiquimod, average where performed multiple times. As to the method:
The induction of Type I interferon (IFN) MX-1 genes and the B-cell activation marker CD69 are downstream events that occur upon activation of the TLR7 pathway. The following is a human whole blood assay that measures their induction in response to a TLR7 agonist.
Heparinized human whole blood was harvested from human subjects and treated with test TLR7 agonist compounds at 1 mM. The blood was diluted with RPMI 1640 media and Echo was used to predot 10 nL per well giving a final concentration of 1 uM (10 nL in 10 uL of blood). After mixing on a shaker for 30 sec, the plates were covered and placed in a 37° C. chamber for o/n=17 hrs. Fixing/lysis buffer was prepared (5×→1× in H2O, warm at 37° C.; Cat #BD 558049) and kept the perm buffer (on ice) for later use.
For surface markers staining (CD69): prepared surface Abs: 0.045 ul hCD14-FITC (ThermoFisher Cat #MHCD1401)+0.6 ul hCD19-ef450 (ThermoFisher Cat #48-0198-42)+1.5 ul hCD69-PE (cat #BD555531)+0.855 ul FACS buffer. Added 3 ul/well, spin1000 rpm for 1 min and mixed on shaker for 30 sec, put on ice for 30 mins. Stop stimulation after 30 min with 70 uL of prewarmed 1× fix/lysis buffer and use Feliex mate to resuspend (15 times, change tips for each plate) and incubate at 37C for 10 min.
Centrifuge at 2000 rpm for 5 min aspirate with HCS plate washer, mix on shaker for 30 sec and then wash with 70 uL in dPBS and pelleted 2× s (2000 rpm for 5 min) and 50 ul wash in FACS buffer pelleted 1×s(2000 rpm for 5 min). Mix on shaker for 30 sec. For Intracellular markers staining (MX-1): Add 50 ul of BD Perm buffer III and mix on shaker for 30 sec. Incubate on ice for 30 min (in the dark). Wash with 50 uL of FACS buffer 2× (spin @2300 rpm×5 min after perm) followed by mixing on shaker for 30 sec. Resuspended in 20 ul of FACS buffer containing MX1 antibody ( )(4812)-Alexa 647: Novus Biologicals #NBP2-43704AF647) 20 ul FACS bf+0.8 ul hlgG+0.04 ul MX-1. Spin 1000 rpm for 1 min, mix on shaker for 30se and the samples were incubated at RT in the dark for 45 min followed by washing 2× FACS buffer (spin @2300 rpm×5 min after perm). Resuspend 20 ul (35 uL total per well) of FACS buffer and cover with foil and place in 4° C. to read the following day. Plates were read on iQuePlus. The results were loaded into toolset and IC50 curves are generated in curve master. The y-axis 100% is set to 1 uM of resiquimod.

Broadly, the EC50 is the concentration needed to bring the measured effect to its halfway point.

For `COc1cc(CN2C[C@@H]3C[C@H]2CN3)ccc1Cn1ncc2nc(N)nc(NCC3CC(C4CC4)C3)c21` (stereo partly drawn) [Compound 112, N7-[(3-cyclopropylcyclobutyl)-methyl]-1-[(4-{[(1S,4S)-2,5-diazabicyclo[2.2.1]heptan-2-yl]methyl}-2-methoxy-phenyl)methyl]-1H-pyrazolo[4,3-d]pyrimidine-5,7-diamine], the EC50 at human TLR7 worked out at 30.5 nM; with CD69 it was 151 nM.

For `COc1cc(CN2C[C@H]3CNC[C@H]3C2)ccc1Cn1ncc2nc(N)nc(NCC3CC(C4CC4)C3)c21` (stereo partly drawn) [Compound 113, 1-[(4-{[(3aR,6aS)-octahydro-pyrrolo[3,4-c]pyrrol-2-yl]methyl}-2-methoxyphenyl)methyl]-N7-[(3-cyclopropylcyclobutyl)methyl]-1H-pyrazolo[4,3-d]pyrimidine-5,7-diamine], the concentration giving a half-maximal response (EC50) at human TLR7 was determined as 22.2 nM; in the test with CD69, 43.2 nM.

Turning to `CCCCNc1nc(N)nc2c(C)nn(Cc3ccc(C(=O)N4C[C@H]5C[C@@H]4CN5C)cc3OC)c12` [Compound 114, N7-butyl-1-({2-methoxy-4-[(1R,4R)-5-methyl-2,5-diazabicyclo-[2.2.1]heptane-2-carbonyl]phenyl}-methyl)-3-methyl-1H-pyrazolo[4,3-d]pyrimidine-5,7-diamine], the concentration giving a half-maximal response (EC50) was 120 nM at human TLR7 and 15.4 nM in the test with CD69.

Regarding `CCCCNc1nc(N)nc2c(C)nn(Cc3ccc(C(=O)N4C[C@H]5CN(C)C[C@H]5C4)cc3OC)c12` [Compound 115, 1-({4-[(3aR,6aS)-5-methyl-octahydropyrrolo[3,4-c]pyrrole-2-carbonyl]-2-methoxyphenyl}methyl)-N7-butyl-3-methyl-1H-pyrazolo[4,3-d]pyrimidine-5,7-diamine], the EC50 came to 79.8 nM at human TLR7 and 10.9 nM in the test with CD69.

With `CCCCNc1nc(N)nc2cnn(Cc3ccc(C(=O)N4C[C@H]5CN(C)C[C@H]5C4)cc3OC(F)F)c12` [Compound 116, 1-({4-[(3aR,6aS)-5-methyl-octa-hydropyrrolo[3,4-c]pyrrole-2-carbonyl]-2-(difluoromethoxy)phenyl}-methyl)-N7-butyl-1H-pyrazolo[4,3-d]pyrimidine-5,7-diamine], the values for the EC50 at human TLR7 and in the test with CD69 were 172 nM and 14.2 nM, respectively.

Regarding `CCCCNc1nc(N)nc2cnn(Cc3ccc(CN4C[C@H]5CN(C)C[C@H]5C4)cc3OC(F)F)c12` [Compound 117, 1-[(4-{[(3aR,6aS)-5-methyl-octa-hdropyrrolo[3,4-c]pyrrol-2-yl]methyl}-2-(difluoromethoxy)phenyl)-methyl]-N7-butyl-1H-pyrazolo[4,3-d]pyrimidine-5,7-diamine], the results for the EC50 at human TLR7 and in the test on CD69 were 92.4 nM and 16.2 nM, respectively.

On to `CCCCNc1nc(N)nc2cnn(Cc3ccc(C(=O)N4C[C@H]5CN(C)C[C@H]5C4)cc3OC3CC3)c12` [Compound 118, 1-({4-[(3aR,6aS)-5-methyl-octa-hydropyrrolo[3,4-c]pyrrole-2-carbonyl]-2-cyclopropoxyphenyl}-methyl)-N7-butyl-1H-pyrazolo[4,3-d]pyrimidine-5,7-diamine], for which the concentration giving a half-maximal response (EC50) came to 339 nM on human TLR7 and 51.8 nM in the test with CD69.

`CCC[C@@H](CCO)Nc1nc(N)nc2cnn(Cc3ccc(C(=O)N4C[C@H]5C[C@@H]4CN5C)cc3OC)c12` [Compound 119, (3S)-3-{[5-amino-1-({2-methoxy-4-[(1R,4R)-5-methyl-2,5-diazabicyclo [2.2.1]heptane-2-carbonyl]phenyl}methyl)-1H-pyrazolo[4,3-d]pyrimidin-7-yl]amino}hexan-1-ol]: the EC50 at human TLR7 came out at 106 nM; in the test with CD69, 18.1 nM.

In the case of `CCC[C@@H](CCO)Nc1nc(N)nc2cnn(Cc3ccc(C(=O)N4C[C@H]5CNC[C@H]5C4)cc3OC)c12` [Compound 120], the concentration for a half-maximal effect (EC50) on human TLR7 amounted to 173 nM; in the test with CD69 it was 138 nM.
